Square brackets hold non-standard residues; d marks the D form. Peptide text beside a SMILES is read from it. Trp(5-OH) = N[C@@H](Cc1c[nH]c2ccc(O)cc12)C(=O)O; NMeW = CN[C@@H](Cc1c[nH]c2ccccc12)C(=O)O; Dip = N[C@H](C(=O)O)C(c1ccccc1)c1ccccc1; β3hW = N[C@H](CC(=O)O)Cc1c[nH]c2ccccc12; Tic = O=C(O)[C@@H]1Cc2ccccc2CN1; 3Thi = N[C@@H](Cc1ccsc1)C(=O)O; Cha = N[C@@H](CC1CCCCC1)C(=O)O; Orn = NCCC[C@H](N)C(=O)O
What was measured:
[1] = biological target: Angiotensin-converting enzyme (Bos taurus) (UniProt P12820); experiment: Inhibition of ACE in bovine kidney; parameters: concentration or dose not given beside the values; conditions: concentration not given here
[2] = biological target: Angiotensin-converting enzyme (Bos taurus) (UniProt P12820); experiment: Activity against ACE in bovine kidney

Chain of Angiotensin-converting enzyme (Bos taurus) (P12820 whole entry, looked up): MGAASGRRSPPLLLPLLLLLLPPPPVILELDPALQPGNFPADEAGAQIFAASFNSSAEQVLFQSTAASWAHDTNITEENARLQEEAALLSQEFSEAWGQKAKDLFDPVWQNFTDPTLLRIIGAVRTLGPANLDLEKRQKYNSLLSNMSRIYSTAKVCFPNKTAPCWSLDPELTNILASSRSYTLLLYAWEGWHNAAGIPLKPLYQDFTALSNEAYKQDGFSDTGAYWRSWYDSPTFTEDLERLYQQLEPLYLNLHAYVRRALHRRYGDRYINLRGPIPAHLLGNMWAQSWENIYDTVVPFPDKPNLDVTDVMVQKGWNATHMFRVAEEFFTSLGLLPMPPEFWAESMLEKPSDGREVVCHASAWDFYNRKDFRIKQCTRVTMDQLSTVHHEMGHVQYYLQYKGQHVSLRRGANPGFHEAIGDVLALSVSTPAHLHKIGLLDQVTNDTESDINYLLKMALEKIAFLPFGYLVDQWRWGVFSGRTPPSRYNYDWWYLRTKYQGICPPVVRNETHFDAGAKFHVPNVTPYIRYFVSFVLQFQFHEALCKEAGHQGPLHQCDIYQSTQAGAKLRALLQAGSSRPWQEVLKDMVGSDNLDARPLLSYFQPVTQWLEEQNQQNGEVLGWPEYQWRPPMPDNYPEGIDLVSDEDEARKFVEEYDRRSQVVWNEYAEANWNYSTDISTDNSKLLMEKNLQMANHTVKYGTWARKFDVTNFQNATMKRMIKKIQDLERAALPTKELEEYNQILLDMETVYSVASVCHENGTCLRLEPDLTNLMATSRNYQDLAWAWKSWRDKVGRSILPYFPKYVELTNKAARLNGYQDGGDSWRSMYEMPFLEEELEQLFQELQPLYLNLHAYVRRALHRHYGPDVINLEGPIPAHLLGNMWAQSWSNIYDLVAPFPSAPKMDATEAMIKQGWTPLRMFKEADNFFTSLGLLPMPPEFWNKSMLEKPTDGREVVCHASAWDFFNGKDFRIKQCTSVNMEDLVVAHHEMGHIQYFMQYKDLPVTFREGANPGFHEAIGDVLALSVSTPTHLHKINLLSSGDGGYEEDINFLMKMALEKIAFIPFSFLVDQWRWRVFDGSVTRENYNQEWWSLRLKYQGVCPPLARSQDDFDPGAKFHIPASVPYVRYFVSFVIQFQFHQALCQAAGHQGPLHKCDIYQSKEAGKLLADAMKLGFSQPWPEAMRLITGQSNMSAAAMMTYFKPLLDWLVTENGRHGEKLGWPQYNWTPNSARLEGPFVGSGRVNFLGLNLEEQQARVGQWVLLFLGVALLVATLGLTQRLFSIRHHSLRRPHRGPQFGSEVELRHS

Structure (SMILES)	inhibition [1] [%]	Activity [2] [mU/ml]
NCCC[C@H](NC(=O)CCc1nc2ccccc2[nH]1)C(=O)N1CCC[C@H]1C(=O)O	65.5	4.7
NCCC[C@H](NC(=O)C[C@@H](N)Cc1c[nH]c2ccccc12)C(=O)N1CCC[C@H]1C(=O)O (H-[β3hW]-[Orn]-Pro-OH)	9.13	12.2
NCCCC[C@H](NC(=O)CCc1ccc(O)cc1)C(=O)N1CCC[C@H]1C(=O)O	29.3	9.52
NCCC[C@H](NC(=O)CCc1ccc(O)cc1)C(=O)N1CCC[C@H]1C(=O)O	23.8	10.3
NCCCC[C@H](NC(=O)C[C@@H](N)Cc1ccccc1)C(=O)N1CCC[C@H]1C(=O)O	22.6	10.4
NCCCC[C@H](NC(=O)[C@@H](N)Cc1ccco1)C(=O)N1CCC[C@H]1C(=O)O	10.1	12.1
NCCCC[C@H](NC(=O)C[C@@H](N)Cc1c[nH]c2ccccc12)C(=O)N1CCC[C@H]1C(=O)O (H-[β3hW]-Lys-Pro-OH)	30.2	9.4
CN[C@@H](Cc1c[nH]c2ccccc12)C(=O)N[C@@H](CCCCN)C(=O)N1CCC[C@H]1C(=O)O (H-[NMeW]-Lys-Pro-OH)	39.1	8.2
NCCC[C@H](NC(=O)[C@@H](N)CC1CCCCC1)C(=O)N1CCC[C@H]1C(=O)O (H-[Cha]-[Orn]-Pro-OH)	30.8	9.32
NCCCC[C@H](NC(=O)[C@@H]1Cc2ccccc2CN1)C(=O)N1CCC[C@H]1C(=O)O (H-[Tic]-Lys-Pro-OH)	19.4	10.8
NCCC[C@H](NC(=O)[C@@H](N)Cc1ccco1)C(=O)N1CCC[C@H]1C(=O)O	35.6	8.67

Second part, the molecule after the results:

inhibition [1] [%]	Activity [2] [mU/ml]	Structure (SMILES)
25	10.1	NCCC[C@H](NC(=O)[C@@H]1Cc2ccccc2CN1)C(=O)N1CCC[C@H]1C(=O)O (H-[Tic]-[Orn]-Pro-OH)
74.7	3.41	NCCC[C@H](NC(=O)[C@@H](N)Cc1ccsc1)C(=O)N1CCC[C@H]1C(=O)O (H-[3Thi]-[Orn]-Pro-OH)
27.7	9.74	NCCC[C@H](NC(=O)[C@@H](N)C(c1ccccc1)c1ccccc1)C(=O)N1CCC[C@H]1C(=O)O (H-[Dip]-[Orn]-Pro-OH)
13.3	11.7	NCCCC[C@H](NC(=O)[C@@H](N)Cc1ccsc1)C(=O)N1CCC[C@H]1C(=O)O (H-[3Thi]-Lys-Pro-OH)
31.7	9.21	NCCC[C@H](NC(=O)C[C@@H](N)Cc1ccccc1)C(=O)N1CCC[C@H]1C(=O)O
33.8	8.91	NCCCC[C@H](NC(=O)[C@@H](N)C(c1ccccc1)c1ccccc1)C(=O)N1CCC[C@H]1C(=O)O (H-[Dip]-Lys-Pro-OH)
68.8	4.2	NCCC[C@H](NC(=O)[C@@H](N)Cc1c[nH]c2ccc(O)cc12)C(=O)N1CCC[C@H]1C(=O)O (H-[Trp(5-OH)]-[Orn]-Pro-OH)
3.71	13.1	NCCCC[C@H](NC(=O)[C@@H](N)CC1CCCCC1)C(=O)N1CCC[C@H]1C(=O)O (H-[Cha]-Lys-Pro-OH)
63.6	4.88	CN[C@@H](Cc1c[nH]c2ccccc12)C(=O)N[C@@H](CCCN)C(=O)N1CCC[C@H]1C(=O)O (H-[NMeW]-[Orn]-Pro-OH)

Source: ChEMBL document CHEMBL1146940, “Structure-activity relationship study between Ornithyl-Proline and Lysyl-Proline based tripeptidomimics as angiotensin-converting enzyme inhibitors” (Bioorg Med Chem Lett, 2006)
